Values of other authors as cited in US12589118B2, “Method of prolonging the lifespan of patients with cerebral autosomal dominant arteriopathy with subcortical infarcts and leukoencephalopathy (CADASIL) using a cerebrolysin® preparation” (EVER NEURO PHARMA GMBH, priority 2017, dated 2026).

Key:
[1] = transcranial Doppler
[2] = transcranial Doppler; remark: listed apart in the source
[3] = 200-400 mg bid in 24 months

CC(C)c1c(C(=O)Nc2ccccc2)c(-c2ccccc2)c(-c2ccc(F)cc2)n1CC[C@@H](O)C[C@@H](O)CC(=O)O [Atorvastatin]
effect on cerebral blood flow [1]: no effects

N=C(N)NCCC[C@H](N)C(=O)O [L-arginine]
vasoreactivity [2]: induced-vasoreactivity

C[C@H](O)[C@H](O)[C@H]1CNc2nc(N)[nH]c(=O)c2N1 [Sapropterin]
primary end-point: mean difference in reactive hyperaemia index (improvement of peripheral vasoreactivity) [3]: not significant
